Results reported in PubChem BioAssay (NCI).
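48-hour exposure; five concentrations; linearly interpolated endpoints. TGI: concentration producing complete growth inhibition.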

What was measured:
Assay in all cases: growth of human tumour cells (NCI), 48 h
HOP-92 NSCLC = tested on: HOP-92 NSCLC
MCF7 breast = tested on: MCF7 breast
CCRF-CEM leukemia = tested on: CCRF-CEM leukemia
HCT-116 colon = tested on: HCT-116 colon
EKVX NSCLC = tested on: EKVX NSCLC
OVCAR-3 ovarian = tested on: OVCAR-3 ovarian
K-562 leukemia = tested on: K-562 leukemia
IGROV1 ovarian = tested on: IGROV1 ovarian
HL-60(TB) leukemia = tested on: HL-60(TB) leukemia
MDA-MB-435 = tested on: MDA-MB-435
M14 melanoma = tested on: M14 melanoma
OVCAR-4 ovarian = tested on: OVCAR-4 ovarian
NCI-H226 lung = tested on: NCI-H226 lung
RPMI-8226 leukemia = tested on: RPMI-8226 leukemia
PC-3 prostate = tested on: PC-3 prostate
UO-31 renal = tested on: UO-31 renal

| SMILES | TGI (HOP-92 NSCLC) | TGI (MCF7 breast) | TGI (CCRF-CEM leukemia) | TGI (HCT-116 colon) | TGI (EKVX NSCLC) | TGI (OVCAR-3 ovarian) | TGI (K-562 leukemia) | TGI (IGROV1 ovarian) | TGI (HL-60(TB) leukemia) | TGI (MDA-MB-435) | TGI (M14 melanoma) | TGI (OVCAR-4 ovarian) | TGI (NCI-H226 lung) | TGI (RPMI-8226 leukemia) | TGI (PC-3 prostate) | TGI (UO-31 renal) |
| --- | --- | --- | --- | --- | --- | --- | --- | --- | --- | --- | --- | --- | --- | --- | --- | --- |
| COC(=O)C1C2OC(C)(C)OC2CN1S(=O)(=O)c1ccc(C)cc1 (stereo not given) | > 100 µM | > 100 µM | > 100 µM | > 100 µM | > 100 µM | > 100 µM | > 100 µM | > 100 µM | > 100 µM | > 100 µM | > 100 µM | > 100 µM | 41.1 µM | > 100 µM | > 100 µM | > 100 µM |
| C[C@]12CC[C@H]3[C@@H](CCC4=CC(=O)CC[C@@H]43)[C@@H]1CC[C@]2(O)C(N)=O | > 100 µM | > 100 µM | > 100 µM | > 100 µM | > 100 µM | > 100 µM | > 100 µM | > 100 µM | > 100 µM | > 100 µM | > 100 µM | > 100 µM | > 100 µM | > 100 µM | > 100 µM | > 100 µM |
| O=C1c2c(Br)sc(Br)c2C(NC(=O)C(F)(F)F)C1O (stereo not given) | 35.9 µM | 45.3 µM | 56.3 µM | 32.6 µM | 39.5 µM | 43.7 µM | > 100 µM | 42.3 µM | > 100 µM | 54.3 µM | 48.2 µM | 34.8 µM | 79.8 µM | – | 74.9 µM | 56.7 µM |
| CCOC(=O)/C(C#N)=C/Nc1c(C)n(C)n(-c2ccccc2)c1=O | > 100 µM | > 100 µM | > 100 µM | > 100 µM | > 100 µM | > 100 µM | > 100 µM | > 100 µM | > 100 µM | > 100 µM | > 100 µM | > 100 µM | > 100 µM | > 100 µM | > 100 µM | > 100 µM |
| O=C(Nc1ccc(Cl)cc1)c1cc(S(=O)(=O)Nc2n[nH]c(Nc3ccc4ccccc4c3)n2)c(SSc2cc(Cl)c(C(=O)Nc3ccc(Cl)cc3)cc2S(=O)(=O)Nc2n[nH]c(Nc3ccc4ccccc4c3)n2)cc1Cl | 59.8 µM | > 64 µM | 43.6 µM | 39.5 µM | > 100 µM | 59.5 µM | 47.3 µM | 56.1 µM | > 63 µM | > 80.3 µM | 59 µM | 97.5 µM | 54.4 µM | > 74.7 µM | 69.1 µM | 65.3 µM |
| COc1cc(C(=O)NNC(=O)c2cc(Br)ccc2NC(=O)c2cccs2)cc(OC)c1OC | 46.9 µM | 52.1 µM | > 100 µM | 51.5 µM | 27 µM | > 100 µM | 11.9 µM | > 100 µM | 93.6 µM | 50 µM | 59.8 µM | 51.4 µM | 36.5 µM | 43.5 µM | > 100 µM | 50.2 µM |
| COc1nn(Cc2ccccn2)c2ccc([N+](=O)[O-])cc12 | 84.2 µM | > 100 µM | > 100 µM | > 100 µM | > 100 µM | > 100 µM | > 100 µM | > 100 µM | 64.1 µM | > 100 µM | > 100 µM | > 100 µM | > 100 µM | > 100 µM | > 100 µM | > 100 µM |
| COc1ccc(CC2Cc3ccccc3CCN2)cc1OC (stereo not given) | > 50 µM | > 50 µM | > 50 µM | > 50 µM | > 50 µM | > 50 µM | > 50 µM | > 50 µM | > 50 µM | > 50 µM | > 50 µM | > 50 µM | > 50 µM | > 50 µM | > 50 µM | > 50 µM |
| O=S(=O)(O)CCSSCCS(=O)(=O)O | > 1000 µM | > 1000 µM | > 1000 µM | > 1000 µM | > 1000 µM | > 1000 µM | > 1000 µM | > 1000 µM | > 1000 µM | > 1000 µM | > 1000 µM | > 1000 µM | > 1000 µM | > 1000 µM | > 1000 µM | > 1000 µM |
| O=C1CSC(c2ccccc2)N1c1nc2cc3sc(N4C(=O)CSC4c4ccccc4)nc3cc2s1 (stereo not given) | > 100 µM | > 100 µM | > 84.1 µM | > 100 µM | > 100 µM | > 100 µM | > 100 µM | > 100 µM | > 100 µM | > 100 µM | > 100 µM | > 100 µM | > 96.6 µM | > 100 µM | > 100 µM | > 100 µM |
| O=c1[nH]c(=O)n(C/C=C/CO)nc1Br | > 100 µM | > 100 µM | > 100 µM | > 100 µM | > 100 µM | > 100 µM | – | > 100 µM | > 100 µM | > 100 µM | > 100 µM | > 100 µM | > 100 µM | > 100 µM | > 100 µM | > 100 µM |
| CC(=O)OCC1OC(NC(=S)Nn2c(=O)[nH]c3ccccc3c2=O)C(OC(C)=O)C(OC(C)=O)C1OC(C)=O (stereo not given) | > 100 µM | > 100 µM | > 100 µM | > 100 µM | > 100 µM | > 100 µM | – | > 100 µM | > 100 µM | > 100 µM | > 100 µM | – | > 100 µM | > 100 µM | > 100 µM | > 100 µM |
| C/C(Cl)=N/OC(=O)Nc1ccc(F)c([N+](=O)[O-])c1 | > 72.5 µM | > 49 µM | – | > 30.8 µM | 33.1 µM | 35.8 µM | > 23.9 µM | 17.9 µM | 6.02 µM | 30.8 µM | > 48 µM | 40.7 µM | 70.1 µM | > 25.7 µM | 33.2 µM | 20.5 µM |
| CC1(C)C2CC(O)C1(C)CC2=O (stereo not given) | > 100 µM | > 100 µM | > 100 µM | > 100 µM | – | > 100 µM | > 100 µM | > 100 µM | > 100 µM | > 100 µM | > 100 µM | > 100 µM | > 100 µM | > 100 µM | > 100 µM | > 100 µM |
| CCCCCCCC(CC(=O)NC(CO)C(=O)NC(CO)CC(C)C)OC(=O)CC(CCCCCCC)OC(=O)CC(CCCCCCC)OC1OC(C)C(O)C(OC2OC(C)C(O)C(OC(C)=O)C2O)C1O (stereo not given) | 22.8 µM | 24.7 µM | 21.4 µM | 25.8 µM | 28.7 µM | 23 µM | 31.4 µM | 24.8 µM | 23.4 µM | 23 µM | 22.6 µM | 27.8 µM | 35.1 µM | – | 20.6 µM | 28.3 µM |
| CSC1=N/C(=C\c2ccc(C)cc2)C(=O)N1 | > 100 µM | > 100 µM | > 100 µM | > 100 µM | > 100 µM | > 100 µM | – | > 100 µM | > 100 µM | > 100 µM | > 100 µM | > 100 µM | > 100 µM | > 100 µM | > 100 µM | > 100 µM |
| Cc1sc2nc(N(C)C)oc(=O)c2c1C | > 100 µM | > 100 µM | > 100 µM | > 100 µM | > 100 µM | – | > 100 µM | > 100 µM | > 100 µM | > 100 µM | > 100 µM | > 100 µM | > 100 µM | > 100 µM | > 100 µM | > 100 µM |
| COC(=O)C1=CC2C(=O)c3ccccc3C1(c1ccccc1)N2C1CCCCC1 (stereo not given) | > 100 µM | 36.8 µM | > 100 µM | > 100 µM | > 100 µM | 95 µM | > 100 µM | > 100 µM | > 100 µM | 43.4 µM | > 100 µM | 91.6 µM | 84.1 µM | – | > 100 µM | > 100 µM |
| CC12Nc3c(Cl)cc(Cl)cc3N1C(=O)c1ccccc12 (stereo not given) | 82.1 µM | > 100 µM | > 100 µM | > 100 µM | > 100 µM | > 100 µM | – | > 100 µM | > 100 µM | > 100 µM | – | > 100 µM | > 100 µM | > 100 µM | > 100 µM | > 100 µM |
| CC(C)CCCC(C)[C@H]1CC[C@H]2n3c(nnc3-c3ccccc3)CCC[C@]12C (stereo not given in full) | 37 µM | 20.7 µM | 24.6 µM | 40.4 µM | – | 25.2 µM | 13.6 µM | 23.4 µM | 16.2 µM | 25.7 µM | 30.1 µM | 32.5 µM | 37.5 µM | 21.1 µM | 44.9 µM | 23.2 µM |
| O=c1[nH]c2cccc([N+](=O)[O-])c2c(=O)n1-c1ccc(Cl)cc1 | 47.9 µM | 25.5 µM | 47.1 µM | 61.7 µM | 28 µM | 23.5 µM | 34.9 µM | 40.1 µM | 53.3 µM | 25.5 µM | 29.2 µM | 16.4 µM | 30.1 µM | 36.1 µM | 38.1 µM | – |
| CN(C)CCn1c(=O)c2ccc(NCCNCCO)c3c(=O)c4ccccc4n(c1=O)c23 | 0.604 µM | 3.2 µM | – | 3.4 µM | 2.41 µM | 5.66 µM | 1.08 µM | 1.87 µM | 0.0197 µM | 2.07 µM | 1.72 µM | 5.24 µM | 4.28 µM | – | 2.09 µM | 0.842 µM |
| NC(CSS(=O)(=O)O)=NC1CC2CCC1C2 (stereo not given) | > 100 µM | > 100 µM | > 100 µM | > 100 µM | – | > 100 µM | > 100 µM | > 100 µM | > 100 µM | > 100 µM | > 100 µM | > 100 µM | > 100 µM | > 100 µM | > 100 µM | – |
